Experimental data: patent US20260070905A1, “Derivatives of Imidazo[1,2-A]Pyridine with Anti-Inflammatory Activity” (Universitat de Veléncia, priority 2023, published 2026)
Entries after “also recorded” stand apart in the source; their conditions may differ.

Experiments:
[1] = target: T1, recombinant Alk5 kinase (TGFβRI) (Homo sapiens, UniProt P36897); assay: In vitro Alk5 kinase inhibition (Kinase-Glo luminescent kinase assay); type: biochemical; conditions: for % kinase activity reduction: values refer to a 100% reduction in activity of the inhibition control GW788388 Hydrate, concentrations of 5 and 10 μM evaluated, ATP 100 μM, 2 h; for Alk5 kinase inhibition: in vitro kinase assay (FIG. 1)
T1 construct: purchased Abcam ab105908
T1 sequence (P36897 34-503): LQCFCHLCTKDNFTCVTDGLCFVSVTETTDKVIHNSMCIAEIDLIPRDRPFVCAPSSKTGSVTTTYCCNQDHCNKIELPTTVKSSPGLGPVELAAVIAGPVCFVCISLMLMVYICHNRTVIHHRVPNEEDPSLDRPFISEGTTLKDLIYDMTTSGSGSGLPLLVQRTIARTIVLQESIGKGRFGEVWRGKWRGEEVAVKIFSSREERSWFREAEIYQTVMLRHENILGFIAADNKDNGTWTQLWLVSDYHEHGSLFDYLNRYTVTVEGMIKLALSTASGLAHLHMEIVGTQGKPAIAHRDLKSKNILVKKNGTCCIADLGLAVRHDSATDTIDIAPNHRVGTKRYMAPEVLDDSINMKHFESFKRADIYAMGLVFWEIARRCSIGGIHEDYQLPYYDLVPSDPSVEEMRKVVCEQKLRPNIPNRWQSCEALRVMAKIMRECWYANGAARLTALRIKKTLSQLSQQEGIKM
Protocol: For this purpose, recombinant Alk5 (Abcam, ref ab105908) was used, and kinase activity was determined using the commercial Kinase-Glo® Luminiscent kinase assay platform (Promega, ref. TB372).
For this purpose, commercially available recombinant Alk5 protein (Abcam, ref ab105908) was used, as well as the commercial Kinase-Glo® Luminiscent kinase assay platform (Promega, ref TB372), which determines the adenosine triphosphate (ATP) not consumed in the phosphorylation reaction by its conjugation to luciferin in a reaction catalyzed by the luciferase enzyme in the presence of Mg^2+. The luminescence observed is inversely proportional to kinase activity.
From this stock solution, dilutions were made in kinase buffer (Tris-HCl pH 7.5 40 mM; MgCl2 20 mM; bovine serum albumin (BSA) 0.1 mg/mL) of 10 μM and concentrations of 5 and 10 μM were evaluated.
Incubation was carried out for 2 hours at room temperature with stirring and in darkness, following the instructions for the commercial system.
After this time, 50 μL of commercial substrate (diluted 1:8) was added, left to stir for 10 minutes at room temperature, and the luminescence was read using a Luminoskan Ascent instrument (Thermo Scientific, Waltham, USA).
All reactions were performed in duplicate.

Caco-2 cells = assay: Viability / MTT cytotoxicity assay on Caco-2 intestinal epithelial cells; type: cell-based; conditions: Caco-2 epithelial cells, all concentrations used (1, 5 and 10 μM), 24 h (FIG. 3A)
Protocol: To quantify the percentage of cells that remained viable in each of the experiments, THP-1-XBlue™-CD14 macrophages (InvivoGen, 8 to 13 passages) were evaluated, derived from human THP-1 monocytes, which stably express the gene for the alkaline phosphatase enzyme inducible by the NF-kB and AP-1 promoters. Human intestinal epithelial Caco-2 cells (ATCC®, HTB-37TM, 10 to 12 passages) were also evaluated. To do this, Trypan blue (Gibco) was used as an exclusion stain. This dye penetrates cells with damaged membranes (a sign of cell death) and stains their cytoplasm dark blue. To do this, the cell suspensions tested were centrifuged at 500×g (5 min at 24° C.), the cell sediments were resuspended in 0.1 mL of PBS, and then 10 μL were mixed with 10 μL of trypan blue (0.4%) filtered through 0.22 μm. The percentage of live cells was determined in 10 μL of the above mixture using a chamber and a Countess™ cell counter (Invitrogen).
In this second cytotoxicity assessment on THP-1-XBlue-CD14 and Caco-2, the technique previously described was used with the MTT dye (3-(4,5-dimethylthiazol-2-yl)-2,5-diphenyltetrazolium bromide) (Biotium).
To do this, both types of cells were seeded in 96-well plates under conditions identical to those used in the anti-inflammation assays. The cells were then washed with PBS and treated with different compounds: 1) PBS (10 μL) (positive growth control, vehicle); 2) 20% DMSO (negative control, as high doses of this compound are cytotoxic); 3) different concentrations of the compounds PS1801 and PS1906 (1, 5, and 10 μM). The plates were incubated for 24 hours at 37° C., 5% CO2, and then 10 μL of MTT was added to each well and the plate was incubated for 4 hours at 37° C., 5% CO2. The formazan crystals formed were dissolved in 180 μL of DMSO, and the plate was incubated for 20 minutes with shaking at room temperature. The absorbance was measured in each well at 595 nm (problem) and 655 nm (background), following the manufacturer's instructions, using an iMark™ Microplate Absorbance Reader (Bio-Rad). The samples were analyzed in triplicate.

[2] = test system: acute lung injury (ALI) induced by LPS; assay: Murine model of acute lung injury (ALI) induced by intratracheal LPS; type: in vivo, mouse (C57BL/6J-OlaHsd); conditions: mice
Excerpt: In order to evaluate the potential anti-inflammatory effect of the PS1906 molecule in an in vivo model, we selected the ALI model induced by tracheal instillation of lipopolysaccharide (LPS), which has been widely described in the literature and previously performed by members of the research group (Clemente-Moragón et al., 2020). This murine model is a model of acute lung inflammation or damage associated with a long-term fibrotic period, so it can be used to study both inflammatory lung diseases and pulmonary fibrotic processes.
Mice of the C57BL/6J-OlaHsd strain were chosen for this model. Adult mice were kept in pathogen-free conditions in a temperature-controlled room with a 12-hour light-dark cycle. Food and water were available ad libitum. The mice were anesthetized intraperitoneally with an injection of an anesthetic cocktail containing atropine sulfate (1 mg/kg; B. Braun, 1 mg/mL), xylazine hydrochloride (20 mg/kg; Rompun® Bayer, 20 mg/mL), and ketamine (100 mg/kg; Anesketin Dechra, 100 mg/mL). All experimental and other scientific procedures involving animals complied with EU Directive 2010/63EU and Recommendation 2007/526/EC, enacted into Spanish law under Real Decreto 53/2013. Animal protocols were approved by local ethics committees and the Animal Protection Area of the Autonomous Community of Madrid.
In vitro studies were taken into account when selecting the doses to be administered, with a concentration of 10 μM being considered the maximum effective (non-toxic) concentration. Assuming an approximate blood volume of 2 mL for a mouse weighing about 30 g, and taking into account a loss due to distribution, metabolism, or secretion of 50% of the products, we calculated dose 1 (D1) and selected dose 2 (D2) as twice the first. Thus, taking into account the respective molecular weights, the corresponding doses for the PS1906 product were 156 μg/kg (D1) and 312 μg/kg (D2). Physiological saline was used as a diluent for the preparation of the different doses. All doses were prepared to administer the same volume in the mouse. The doses were administered intravenously with the animal properly anesthetized moments before the induction of pulmonary inflammation. […]
After 24 h, the animals were sacrificed and the lungs were washed with 1.5 mL of cold PBS through a tracheal catheter (Introcan Safety 22G, Braun), and a total of 1 mL of bronchoalveolar lavage fluid was extracted from each mouse for the detection of neutrophils and lymphocytes by flow cytometry. […] The data were analyzed with FlowJo software (Ashland). […]

[3] = test system: THP-1-XBlue™-CD14 macrophages; assay: MTT cytotoxicity assay on THP-1-XBlue-CD14 macrophages; type: cell-based; conditions: THP-1 macrophages, all concentrations used (1, 5 and 10 μM), 24 h (FIG. 2, FIG. 3B)
Excerpt: To quantify the percentage of cells that remained viable in each of the experiments, THP-1-XBlue™-CD14 macrophages (InvivoGen, 8 to 13 passages), derived from human THP-1 monocytes, which stably express the gene for the alkaline phosphatase enzyme inducible by the NF-kB and AP-1 promoters.
The MTT dye (3-(4,5-dimethylthiazol-2-yl)-2,5-diphenyltetrazolium bromide) (Biotium) was used. This assay is based on the cleavage of the yellow MTT tetrazolium salt to form purple formazan crystals, produced by metabolically active cells. Formazan is solubilized with DMSO and its concentration is determined by spectrophotometry; the optical density is proportional to the number of viable cells.
To do this, the cells were seeded in 96-well plates at a density of 3×10^5 cells/mL in RPMI 1640 medium (Gibco) supplemented with 10% FBS, penicillin, streptomycin (both at a concentration of 100 μg/mL, Sigma-Aldrich), and PMA (100 ng/mL) (Sigma-Aldrich), and were cultured at 37° C., 5% CO2 for 48 h. […] The absorbance was measured in each well at 595 nm (problem) and 655 nm (background), following the manufacturer's instructions, using an iMark™ Microplate Absorbance Reader (Bio-Rad). The samples were analyzed in triplicate. The percentage of viable cells was calculated using the following formula: […]

Oc1ccc(-c2ccn3ccnc3c2)cc1 [Compound 12, 4-(Imidazo[1,2-a]pyridin-7-yl)phenol]
% kinase activity reduction [1]: 87.5%

c1ccc2oc(-c3ccn4ccnc4c3)cc2c1 [Compound 26, 7-(Benzofuran-2-yl)imidazo[1,2-a]pyridine]
cytotoxic effects (cell viability) (Caco-2 cells): no cytotoxic effects
ALI score (histopathological lung damage) ([2]; i.v. 156 μg/kg (D1) and 312 μg/kg (D2), LPS 10 mg/kg intratracheal, 24 h (FIG. 6A, 6B), listed as PS1906): significantly different from the group of sick mice treated with LPS; also recorded: positive effect
neutrophils in bronchoalveolar lavage fluid (flow cytometry) ([2]; i.v. 156 μg/kg (D1) and 312 μg/kg (D2), LPS 10 mg/kg intratracheal, 24 h (FIG. 6C)): dose-dependent anti-inflammatory effect
lymphocytes in bronchoalveolar lavage fluid (flow cytometry) ([2]; i.v. 156 μg/kg (D1) and 312 μg/kg (D2), LPS 10 mg/kg intratracheal, 24 h (FIG. 6D), not statistically significant): dose-dependent anti-inflammatory effect
total number of infiltrated cells in bronchoalveolar lavage fluid (flow cytometry) ([2]; i.v. D1 and D2, LPS intratracheal, 24 h): dose-dependent anti-inflammatory effect
Alk5 kinase inhibition [1]: one of those that showed the greatest inhibitory effect
% kinase activity reduction [1]: 93.4%

COc1ccc(-c2cn3ccc(-c4ccc(O)cc4)cc3n2)cc1 [Compound 16, 4-(2-(4-Methoxyphenyl)imidazo[1,2-a]pyridin-7-yl)phenol]
% kinase activity reduction [1]: 75.4%

O.O=C(NC1CCOCC1)c1ccc(-c2cc(-c3c[nH]nc3-c3ccccn3)ccn2)cc1 [GW788388, 4-{4-[3-(pyridin-2-yl)-1H-pyrazol-4-yl]-pyridin-2-yl}-N-(tetrahydro-2H-pyran-4-yl)benzamide hydrate, reference compound]
cytotoxic effects (cell viability) (Caco-2 cells): lacking cytotoxic activity
cytotoxic effects (cell viability) [3]: lacking cytotoxic activity
Alk5 kinase inhibition [1]: approximately 25%

CCOC(=O)c1cc2cc(-c3cnc4ccccn34)ccc2[nH]1 [Compound 31, Ethyl 5-(imidazo[1,2-a]pyridin-3-yl)-1H-indole-2-carboxylate]
cytotoxic effects (cell viability) (Caco-2 cells): no cytotoxic effects
% kinase activity reduction [1]: 79.1%
